The target of the experiment is T1, tubulin/RB3-stathmin-like-domain (RB3-SLD-tdm) complex (Sus scrofa, UniProt P02550+P02554).
T1 construct: purchased Cytoskeleton, Inc. T240; host or cells: RB3-SLD was made in house in E. coli
Briefly: Tubulin Peptide-Binding Site Competition Assay (fluorescence polarization). The following applies: FP competition with BODIPY-labeled vinca peptide probe; read after five hours at 22° C.; read-out: Tubulin Peptide-Binding Site Competition Assay IC50. Also noted: species or system Porcine. As to the method:
Tubulin Peptide-Binding Site Competition Assay
Tubulin binding potency was measured for payloads or cysteine-capped linker-payloads using a fluorescence polarization (FP) competition assay. The binding of a BODIPY-labeled vinca peptide probe (# B31) to a tubulin/RB3-stathmin-like-domain (RB3-SLD-tdm) complex generates a high FP signal, which can be decreased when mixing with test compounds that compete with the FP probe. The order of addition for the reagents in the FP assay was designed to pre-mix the FP probe with various concentrations of the test compound before mixing them with the tubulin/RB3-SLD-dm complex. The final assay concentrations of the probe, tubulin and RB3-SLD-dm were 3, 6, and 100 nM, respectively. IC50 for each test compound is obtained by fitting the dose-dependent FP signal change using GraphPad Prism version 5 software (La Jolla, Calif.) while Ki is converted from the IC50 using the equations described previously (Nikolovska-Coleska et al., 2004). The FP signals were measured on an Infinite M1000 (Tecan, San Jose, Calif.) using ProxiPlate-384 F Plus, Black (Perkin-Elmer, Waltham, Mass., Cat #6008260) with 15 μL of solution per well. Sample dilution and mixing were done using a Beckman Biomek XF (Brea, Calif.). Porcine tubulin was purchased from Cytoskeleton, Inc. (Denver, Colo., Cat #T240) and RB3-SLD was expressed in E. coli. and purified on Q and then Superdex75 columns. The FP assay test for each compound was run in duplicates by mixing 6 μL of solution 1 containing 2.5× test compound (2.5× serial dilution from 7.8 μM maximum concentration, 11 total concentrations) and 7.5 nM of the FP probe in 80 mM PIPES, pH 7.0, 0.02% Tween 20, 2 mM MgCl2, 1 mM EGTA and 3% DMSO with 9 μL of solution 2 containing […] porcine tubulin and 167 nM of RB3-SLD-dm peptide ([…]-[…]) on ProxiPlate-384 micro-plates.
On the technique in general: Fluorescence polarisation rises when a labelled molecule tumbles more slowly, as on binding a larger partner.
For orientation: IC50 means the concentration that gives 50% inhibition. `CC[C@H](C)[C@H](NC(=O)[C@@]1(C)CCCN1C)C(=O)N(C)[C@H](C[C@@H](OC(C)=O)c1nc(C(=O)NCCC2CCCCC2)cs1)C(C)C` [#B49, 1,2-dimethyl-D-prolyl-N-[(1R,3R)-1-(acetyloxy)-1-{4-[(2-cyclohexylethyl)carbamoyl]-1,3-thiazol-2-yl}-4-methylpentan-3-yl]-N-methyl-L-isoleucinamide]: the IC50 was 127 nM.

In the case of `CC[C@H](C)[C@H](NC(=O)[C@@]1(C)CCCN1C)C(=O)N(C)[C@H](C[C@@H](OC(C)=O)c1nc(C(=O)NC2(c3ccccc3)CC2)cs1)C(C)C` [#B52, 1,2-dimethyl-D-prolyl-N-[(1R,3R)-1-(acetyloxy)-4-methyl-1-{4-[(1-phenylcyclopropyl)carbamoyl]-1,3-thiazol-2-yl}pentan-3-yl]-N-methyl-L-isoleucinamide], the IC50 stood at 61.8 nM.

Take `CC[C@H](C)[C@H](NC(=O)[C@@]1(C)CCCN1C)C(=O)N(C)[C@H](C[C@@H](OC(C)=O)c1nc(C(=O)NCCc2c[nH]cn2)cs1)C(C)C` [#B54, 1,2-dimethyl-D-prolyl-N-[(1R,3R)-1-(acetyloxy)-1-(4-{[2-(1H-imidazol-4-yl)ethyl]carbamoyl}-1,3-thiazol-2-yl)-4-methylpentan-3-yl]-N-methyl-L-isoleucinamide]: the IC50 came to 60.6 nM.

On to `CC[C@H](C)[C@H](NC(=O)[C@@]1(C)CCCN1C)C(=O)N(C)[C@H](C[C@@H](OC(C)=O)c1nc(C(=O)NC2(Cc3ccccc3)CC2)cs1)C(C)C` [#B55], for which the IC50 is 28.4 nM.

On to `CC[C@H](C)[C@H](NC(=O)[C@@]1(C)CCCN1C)C(=O)N(C)[C@H](C[C@@H](OC(C)=O)c1nc(C(=O)NCCn2cccn2)cs1)C(C)C` [#B56, 1,2-dimethyl-D-prolyl-N-[(1R,3R)-1-(acetyloxy)-4-methyl-1-(4-{[2-(1H-pyrazol-1-yl)ethyl]carbamoyl}-1,3-thiazol-2-yl)pentan-3-yl]-N-methyl-L-isoleucinamide], for which the IC50 worked out at 33.6 nM.

As to `CC[C@H](C)[C@H](NC(=O)[C@@]1(C)CCCN1C)C(=O)N(C)[C@H](C[C@@H](OC(C)=O)c1nc(C(=O)NC2CCc3ccccc3C2)cs1)C(C)C` (stereo partly drawn) [#B57, 1,2-dimethyl-D-prolyl-N-{(1R,3R)-1-(acetyloxy)-4-methyl-1-[4-(1,2,3,4-tetrhydronaphthalen-2-ylcarbamoyl)-1,3-thiazol-2-yl)pentan-3-yl}-N-methyl-L-isoleucinamide], the IC50 turned out to be 78.8 nM.

Consider `CC[C@H](C)[C@H](NC(=O)[C@@]1(C)CCCN1C)C(=O)N(C)[C@H](C[C@@H](OC(C)=O)c1nc(C(=O)NCCc2c[nH]c3ccccc23)cs1)C(C)C` [#B59, 1,2-dimethyl-D-prolyl-N-[(1R,3R)-1-(acetyloxy)-1-(4-{[2-(1H-indol-3-yl)ethyl]carbamoyl}-1,3-thiazol-2-yl)-4-methylpentan-3-yl]-N-methyl-L-isoleucinamide], for which the IC50 came to 64.6 nM.

Consider `CC[C@H](C)[C@H](NC(=O)[C@@]1(C)CCCN1C)C(=O)N(C)[C@H](C[C@@H](OC(C)=O)c1nc(C(=O)NCCNC(=O)c2ccccc2)cs1)C(C)C` [#B60, 1,2-dimethyl-D-prolyl-N-[(1R,3R)-1-(acetyloxy)-1-(4-{[2-(benzoylamino)ethyl]carbamoyl}-1,3-thiazol-2-yl)-4-methylpentan-3-yl]-N-methyl-L-isoleucinamide], for which the IC50 came out at 108 nM.

Consider `CC[C@H](C)[C@H](NC(=O)[C@@]1(C)CCCN1C)C(=O)N(C)[C@H](C[C@@H](OC(C)=O)c1nc(C(=O)NC2(c3ccccn3)CC2)cs1)C(C)C` [#B63], for which the IC50 worked out at 105 nM.

Turning to `CC[C@H](C)[C@H](NC(=O)[C@@]1(C)CCCN1C)C(=O)N(C)[C@H](C[C@@H](OC(C)=O)c1nc(C(=O)NCCN2CCOC2=O)cs1)C(C)C` [#B64, 1,2-dimethyl-D-prolyl-N-[(1R,3R)-1-(acetyloxy)-4-methyl-1-(4-{[2-(2-oxo-1,3-oxazolidin-3-yl)ethyl]carbamoyl}-1,3-thiazol-2-yl)pentan-3-yl]-N-methyl-L-isoleucinamide], the IC50 amounted to 73 nM.

Regarding `CC[C@H](C)[C@H](NC(=O)[C@@]1(C)CCCN1C)C(=O)N(C)[C@H](C[C@@H](OC(C)=O)c1nc(C(=O)NCC2(c3ccccc3)CCN(C)CC2)cs1)C(C)C` [#B65, 1,2-dimethyl-D-prolyl-N-[(1R,3R)-1-(acetyloxy)-4-methyl-1-(4-{[(1-methyl-4-phenylpiperidin-4-yl)methyl]carbamoyl}-1,3-thiazol-2-yl)pentan-3-yl]-N-methyl-L-isoleucinamide], the IC50 was determined as 33.8 nM.

For the molecule `CC[C@H](C)[C@H](NC(=O)[C@@]1(C)CCCN1C)C(=O)N(C)[C@H](C[C@@H](OC(C)=O)c1nc(C(=O)NC(Cc2ccccc2)c2ccc(N(C)C)cc2)cs1)C(C)C` (stereo partly drawn) [#B66, 1,2-dimethyl-D-prolyl-N-{(1R,3R)-1-(acetyloxy)-1-[4-({1-[4-(dimethylamino)phenyl]-2-phenylethyl}carbamoyl)-1,3-thiazol-2-yl]-4-methylpentan-3-yl}-N-methyl-L-isoleucinamide], the IC50 came out at 52.2 nM.

Consider `CC[C@H](C)[C@H](NC(=O)[C@@]1(C)CCCN1C)C(=O)N(C)[C@H](C[C@@H](OC(C)=O)c1nc(C(=O)NC(c2ccccc2)c2ccccc2)cs1)C(C)C` [#B67, 1,2-dimethyl-D-prolyl-N-[(1R,3R)-1-(acetyloxy)-1-{4-[(diphenylmethyl)carbamoyl]-1,3-thiazol-2-yl}-4-methylpentan-3-yl]-N-methyl-L-isoleucinamide], for which the IC50 turned out to be 348 nM.

With `CC[C@H](C)[C@H](NC(=O)[C@@]1(C)CCCN1C)C(=O)N(C)[C@H](C[C@@H](OC(C)=O)c1nc(C(=O)NCCc2cnccn2)cs1)C(C)C` [#B68, 1,2-dimethyl-D-prolyl-N-{(1R,3R)-1-(acetyloxy)-4-methyl-1-(4-{[2-(pyrazin-2-yl)ethyl]carbamoyl}-1,3-thiazol-2-yl)pentan-3-yl]-N-methyl-L-isoleucinamide], the IC50 came to 84.7 nM.

On to `CC[C@H](C)[C@H](NC(=O)[C@@]1(C)CCCN1C)C(=O)N(C)[C@H](C[C@@H](OC(C)=O)c1nc(C(=O)NCC2OCCc3ccccc32)cs1)C(C)C` (stereo partly drawn) [#B69, 1,2-dimethyl-D-prolyl-N-[(1R,3R)-1-(acetyloxy)-1-{4-[(3,4-dihydro-1H-isochromen-1-ylmethyl)carbamoyl]-1,3-thiazol-2-yl}-4-methylpentan-3-yl}-N-methyl-L-isoleucinamide], for which the IC50 turned out to be 29.9 nM.

Consider `CC[C@H](C)[C@H](NC(=O)[C@@]1(C)CCCN1C)C(=O)N(C)[C@H](C[C@@H](OC(C)=O)c1nc(C(=O)NCCc2cccc3ccccc23)cs1)C(C)C` [#B70, 1,2-dimethyl-D-prolyl-N-[(1R,3R)-1-(acetyloxy)-4-methyl-1-(4-{[2-(naphthalen-1-yl)ethyl]carbamoyl}-1,3-thiazol-2-yl)pentan-3-yl]-N-methyl-L-isoleucinamide], for which the IC50 was determined as 56.3 nM.

`CC[C@H](C)[C@H](NC(=O)[C@@]1(C)CCCN1C)C(=O)N(C)[C@H](C[C@@H](OC(C)=O)c1nc(C(=O)NCCc2cncnc2)cs1)C(C)C` [#B71, 1,2-dimethyl-D-prolyl-N-[(1R,3R)-1-(acetyloxy)-4-methyl-1-(4-{[2-(pyrimidin-5-yl)ethyl]carbamoyl}-1,3-thiazol-2-yl)pentan-3-yl]-N-methyl-L-isoleucinamide]: the 50% inhibitory concentration (IC50) worked out at 85.1 nM.

On to `CC[C@H](C)[C@H](NC(=O)[C@@]1(C)CCCN1C)C(=O)N(C)[C@H](C[C@@H](OC(C)=O)c1nc(C(=O)N[C@@H](Cc2ccccc2)CN2CCOCC2)cs1)C(C)C` [#B72, 1,2-dimethyl-D-prolyl-N-[(1R,3R)-1-(acetyloxy)-4-methyl-1-(4-{[(2S)-1-(morpholin-4-yl)-3-phenylpropan-2-yl]carbamoyl}-1,3-thiazol-2-yl)pentan-3-yl]-N-methyl-L-isoleucinamide], for which the IC50 was 32.9 nM.

On to `CC[C@H](C)[C@H](NC(=O)[C@@]1(C)CCCN1C)C(=O)N(C)[C@H](C[C@@H](OC(C)=O)c1nc(C(=O)NCCN2CCCC2=O)cs1)C(C)C` [#B73, 1,2-dimethyl-D-prolyl-N-[(1R,3R)-1-(acetyloxy)-4-methyl-1-(4-{[2-(2-oxopyrrolidin-1-yl)ethyl]carbamoyl}-1,3-thiazol-2-yl)pentan-3-yl]-N-methyl-L-isoleucinamide], for which the IC50 was 85.5 nM.

As to `CC[C@H](C)[C@H](NC(=O)[C@@]1(C)CCCN1C)C(=O)N(C)[C@H](C[C@@H](OC(C)=O)c1nc(C(=O)NC(Cc2ccccc2)c2ccccc2)cs1)C(C)C` (stereo partly drawn) [#B74, 1,2-dimethyl-D-prolyl-N-[(1R,3R)-1-(acetyloxy)-1-{4-[(1,2-diphenylethyl)carbamoyl]-1,3-thiazol-2-yl}-4-methylpentan-3-yl]-N-methyl-L-isoleucinamide], the IC50 amounted to 89.3 nM.

The values above are taken from patent publication US10723727B2, “Tubulysin analogs and methods for their preparation” (priority 2016, dated 2020).
